US20250250230A1, “HETEROCYCLIC COMPOUND” (TAKEDA PHARMACEUTICAL COMPANY LIMITED, priority 2022, published 2025)

What follows are molecules tested against T1, human orexin type 2 receptor (Homo sapiens, UniProt O43614) (assay: Measurement of orexin type 2 receptor agonist activity (calcium fluorescence, Fluo-4 AM, FDSS)). Settings: test compound 3 μM; CHO cells expressing human OX2 receptor; DMSO = 0%, orexin A (human) = 100%.
T1 construct: expressed in transfected cells
T1 sequence (O43614 1-444): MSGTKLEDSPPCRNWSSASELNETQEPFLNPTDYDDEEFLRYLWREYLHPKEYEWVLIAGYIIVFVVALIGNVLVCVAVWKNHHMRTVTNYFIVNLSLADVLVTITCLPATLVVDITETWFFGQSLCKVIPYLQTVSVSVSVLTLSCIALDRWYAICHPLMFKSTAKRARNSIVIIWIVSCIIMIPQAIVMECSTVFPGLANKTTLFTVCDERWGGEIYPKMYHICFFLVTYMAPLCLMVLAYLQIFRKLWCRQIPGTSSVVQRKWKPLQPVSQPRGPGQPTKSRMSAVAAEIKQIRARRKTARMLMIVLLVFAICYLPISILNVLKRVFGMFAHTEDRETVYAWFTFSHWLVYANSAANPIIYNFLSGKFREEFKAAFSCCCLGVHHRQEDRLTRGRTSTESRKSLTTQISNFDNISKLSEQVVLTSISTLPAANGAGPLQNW
Type: cell-based
Method in brief: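 Agonist response scaled between vehicle (0%) and human orexin A at 10 nM final (100%), from 2-min kinetic Fluo-4 fluorescence reads. Stable hOX2R CHO-K1 clone, dye-loaded in HBSS/20 mM HEPES/0.1% BSA with 1.25 mM probenecid before compound addition.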

Structure (SMILES)	OX2R agonist activity (3 μM, %)
CS(=O)(=O)N[C@H]1CCN(C(=O)C2CC2(F)c2ccccc2-c2c(F)cccc2F)C1 (mixture of isomers) [Example 198, a mixture of N-{(3S)-1-[(1R,2R)-2-(2′,6′-difluoro[1,1′-biphenyl]-2-yl)-2-fluorocyclopropane-1-carbonyl]pyrrolidin-3-yl}methanesulfonamide and N-{(3S)-1-[(1S,2S)-2-(2′,6′-difluoro[1,1′-biphenyl]-2-yl)-2-fluorocyclopropane-1-carbonyl]pyrrolidin-3-yl}methanesulfonamide]	101%
CS(=O)(=O)N[C@H]1CCN(C(=O)C2(C#N)CC2c2ccccc2-c2c(F)cccc2F)C1 (mixture of isomers) [Example 316, a mixture of rac-N-{(3S)-1-[(1R,2S)-1-cyano-2-(2′,6′-difluoro[1,1′-biphenyl]-2-yl)cyclopropane-1-carbonyl]pyrrolidin-3-yl}methanesulfonamide and N-{(3S)-1-[(1S,2R)-1-cyano-2-(2′,6′-difluoro[1,1′-biphenyl]-2-yl)cyclopropane-1-carbonyl]pyrrolidin-3-yl}methanesulfonamide]	88%
CC(NS(C)(=O)=O)C12CC(C1)N(C(=O)[C@@H]1C[C@@]1(F)c1ccccc1-c1c(F)cccc1F)C2 (stereo partly drawn) [Example 392, N-[(1R)-1-{2-[(1S,2S)-2-(2′,6′-difluoro[1,1′-biphenyl]-2-yl)-2-fluorocyclopropane-1-carbonyl]-2-azabicyclo[2.1.1]hexan-4-yl}ethyl]methanesulfonamide, or N-[(1S)-1-{2-[(1S,2S)-2-(2′,6′-difluoro[1,1′-biphenyl]-2-yl)-2-fluorocyclopropane-1-carbonyl]-2-azabicyclo[2.1.1]hexan-4-yl}ethyl]methanesulfonamide]	68%
CS(=O)(=O)N[C@@H]1CN(C(=O)[C@@H]2C[C@@]2(F)c2ccccc2-c2c(F)cccc2F)CC[C@H]1O [Example 348, N-{(3R,4R)-1-[(1S,2S)-2-(2′,6′-difluoro[1,1′-biphenyl]-2-yl)-2-fluorocyclopropane-1-carbonyl]-4-hydroxypiperidin-3-yl}methanesulfonamide]	97%
CC(C)S(=O)(=O)N[C@@H](C)[C@@H]1CCN1C(=O)[C@@H]1C[C@@]1(F)c1ccccc1-c1c(F)cccc1F [Example 389, N-[(1S)-1-{(2S)-1-[(1S,2S)-2-(2′,6′-difluoro[1,1′-biphenyl]-2-yl)-2-fluorocyclopropane-1-carbonyl]azetidin-2-yl}ethyl]propane-2-sulfonamide]	97%
CS(=O)(=O)NC1CCCN(C(=O)C2CC2c2cnccc2-c2c(F)cccc2F)CC1 (racemic) [Example 206, a mixture of rac-N-[(4R)-1-{(1R,2R)-2-[4-(2,6-difluorophenyl)pyridin-3-yl]cyclopropane-1-carbonyl}azepan-4-yl]methanesulfonamide and rac-N-[(4S)-1-{(1R,2R)-2-[4-(2,6-difluorophenyl)pyridin-3-yl]cyclopropane-1-carbonyl}azepan-4-yl]methanesulfonamide]	87%
CS(=O)(=O)NC1CCCN(C(=O)C2CC2c2ccccc2-c2cc(F)ccc2F)CC1 (racemic) [Example 51, a mixture of rac-N-{(4R)-1-[(1R,2R)-2-(2′,5′-difluoro[1,1′-biphenyl]-2-yl)cyclopropane-1-carbonyl]azepan-4-yl}methanesulfonamide and rac-N-{(4S)-1-[(1R,2R)-2-(2′,5′-difluoro[1,1′-biphenyl]-2-yl)cyclopropane-1-carbonyl]azepan-4-yl}methanesulfonamide]	75%

Second part, the molecule after the results:

OX2R agonist activity (3 μM, %)	Structure (SMILES)
96%	CN(C)S(=O)(=O)NCC1CCN1C(=O)C1CC1c1ccccc1-c1c(F)cccc1F (racemic) [Example 204, a mixture of rac-N′-({(2R)-1-[(1R,2R)-2-(2′,6′-difluoro[1,1′-biphenyl]-2-yl)cyclopropane-1-carbonyl]azetidin-2-yl}methyl)-N,N-dimethylsulfuric diamide and rac-N′-({(2S)-1-[(1R,2R)-2-(2′,6′-difluoro[1,1′-biphenyl]-2-yl)cyclopropane-1-carbonyl]azetidin-2-yl}methyl)-N,N-dimethysulfuric diamide]
98%	CCS(=O)(=O)NC1COCCN(C(=O)[C@@H]2C[C@H]2c2ccccc2-c2c(F)cccc2F)C1 (mixture of isomers) [Example 257]
89%	O=C([C@@H]1C[C@H]1c1ccccc1-c1c(F)cccc1F)N1CC[C@H](NS(=O)(=O)N2CCC2)C1 [Example 326, N-{(3S)-1-[(1R,2R)-2-(2′,6′-difluoro[1,1′-biphenyl]-2-yl)cyclopropane-1-carbonyl]pyrrolidin-3-yl}azetidine-1-sulfonamide]
96%	CS(=O)(=O)NCC1CCN(C(=O)[C@@H]2C[C@@]2(F)c2ccccc2-c2c(F)cccc2F)C1 (stereo partly drawn) [Example 450, N-({(3R)-1-[(1S,2S)-2-(2′,6′-difluoro[1,1′-biphenyl]-2-yl)-2-fluorocyclopropane-1-carbonyl]pyrrolidin-3-yl}methyl)methanesulfonamide, or N-({(3S)-1-[(1S,2S)-2-(2′,6′-difluoro[1,1′-biphenyl]-2-yl)-2-fluorocyclopropane-1-carbonyl]pyrrolidin-3-yl}methyl)methanesulfonamide]
106%	CC1CC(NS(C)(=O)=O)CN(C(=O)C2CC2c2ccccc2-c2c(F)cccc2F)C1 (racemic) [Example 158]
86%	CS(=O)(=O)NC1CCN(C(=O)C2CC2c2c(F)cccc2-c2ccccc2F)C1 (racemic) [Example 188, a mixture of rac-N-{(3R)-1-[(1R,2R)-2-(2′,3-difluoro[1,1′-biphenyl]-2-yl)cyclopropane-1-carbonyl]pyrrolidin-3-yl}methanesulfonamide and rac-N-{(3S)-1-[(1R,2R)-2-(2′,3-difluoro[1,1′-biphenyl]-2-yl)cyclopropane-1-carbonyl]pyrrolidin-3-yl}methanesulfonamide]
86%	CC1(C(=O)N2CCCC[C@H](NS(C)(=O)=O)C2)CC1c1ccccc1-c1c(F)cccc1F (stereo partly drawn) [Example 274, N-{(3S)-1-[(1R,2S)-2-(2′,6′-difluoro[1,1′-biphenyl]-2-yl)-1-methylcyclopropane-1-carbonyl]azepan-3-yl}methanesulfonamide, or N-{(3S)-1-[(1S,2R)-2-(2′,6′-difluoro[1,1′-biphenyl]-2-yl)-1-methylcyclopropane-1-carbonyl]azepan-3-yl}methanesulfonamide]
98%	CS(=O)(=O)N[C@H]1CCCN(C(=O)C2CC2c2cccc(F)c2-c2c(F)cccc2F)C1 (mixture of isomers) [Example 193, a mixture of N-{(3S)-1-[(1R,2R)-2-(2′,6,6′-trifluoro[1,1′-biphenyl]-2-yl)cyclopropane-1-carbonyl]piperidin-3-yl}methanesulfonamide and N-{(3S)-1-[(1S,2S)-2-(2′,6,6′-trifluoro[1,1′-biphenyl]-2-yl)cyclopropane-1-carbonyl]piperidin-3-yl}methanesulfonamide]
101%	CCS(=O)(=O)NC[C@@H]1CCN1C(=O)[C@@H]1C[C@@]1(F)c1ccccc1-c1c(F)cccc1F (single isomer, unassigned) [Example 351, N-({(2R)-1-[(1S,2S)-2-(2′,6′-difluoro[1,1′-biphenyl]-2-yl)-2-fluorocyclopropane-1-carbonyl]azetidin-2-yl}methyl)ethanesulfonamide, or N-({(2S)-1-[(1S,2S)-2-(2′,6′-difluoro[1,1′-biphenyl]-2-yl)-2-fluorocyclopropane-1-carbonyl]azetidin-2-yl}methyl)ethanesulfonamide]
94%	CS(=O)(=O)NC1CCC2CN(C(=O)[C@@H]3C[C@H]3c3ccccc3-c3c(F)cccc3F)CC21F (stereo partly drawn) [Example 340, N-{(3aR,4R,6aS)-2-[(1R,2R)-2-(2′,6′-difluoro[1,1′-biphenyl]-2-yl)cyclopropane-1-carbonyl]-3a-fluorooctahydrocyclopenta[c]pyrrol-4-yl}methanesulfonamide, or N-{(3aS,4S,6aR)-2-[(1R,2R)-2-(2′,6′-difluoro[1,1′-biphenyl]-2-yl)cyclopropane-1-carbonyl]-3a-fluorooctahydrocyclopenta[c]pyrrol-4-yl}methanesulfonamide]
86%	CCC(NS(C)(=O)=O)[C@@H]1CCN1C(=O)[C@@H]1C[C@@]1(F)c1ccccc1-c1c(F)cccc1F (stereo partly drawn) [Example 379, N-[(1R)-1-{(2S)-1-[(1S,2S)-2-(2′,6′-difluoro[1,1′-biphenyl]-2-yl)-2-fluorocyclopropane-1-carbonyl]azetidin-2-yl}propyl]methanesulfonamide, or N-[(1S)-1-{(2S)-1-[(1S,2S)-2-(2′,6′-difluoro[1,1′-biphenyl]-2-yl)-2-fluorocyclopropane-1-carbonyl]azetidin-2-yl}propyl]methanesulfonamide]
